Data on eight molecules can be found in patent publication US8372855B2, “Cyclohexyloxy-substituted heterocyclics, medicines containing these compounds and method for the production thereof” (Boehringer Ingelheim International GmbH, priority 2008, dated 2013).

The structures appear in SMILES notation.

For this assay, the target named is T1, human EGF-R (Homo sapiens, UniProt P00533).
T1 construct: expressed in transfected cells
T1 sequence (P00533 25-1210): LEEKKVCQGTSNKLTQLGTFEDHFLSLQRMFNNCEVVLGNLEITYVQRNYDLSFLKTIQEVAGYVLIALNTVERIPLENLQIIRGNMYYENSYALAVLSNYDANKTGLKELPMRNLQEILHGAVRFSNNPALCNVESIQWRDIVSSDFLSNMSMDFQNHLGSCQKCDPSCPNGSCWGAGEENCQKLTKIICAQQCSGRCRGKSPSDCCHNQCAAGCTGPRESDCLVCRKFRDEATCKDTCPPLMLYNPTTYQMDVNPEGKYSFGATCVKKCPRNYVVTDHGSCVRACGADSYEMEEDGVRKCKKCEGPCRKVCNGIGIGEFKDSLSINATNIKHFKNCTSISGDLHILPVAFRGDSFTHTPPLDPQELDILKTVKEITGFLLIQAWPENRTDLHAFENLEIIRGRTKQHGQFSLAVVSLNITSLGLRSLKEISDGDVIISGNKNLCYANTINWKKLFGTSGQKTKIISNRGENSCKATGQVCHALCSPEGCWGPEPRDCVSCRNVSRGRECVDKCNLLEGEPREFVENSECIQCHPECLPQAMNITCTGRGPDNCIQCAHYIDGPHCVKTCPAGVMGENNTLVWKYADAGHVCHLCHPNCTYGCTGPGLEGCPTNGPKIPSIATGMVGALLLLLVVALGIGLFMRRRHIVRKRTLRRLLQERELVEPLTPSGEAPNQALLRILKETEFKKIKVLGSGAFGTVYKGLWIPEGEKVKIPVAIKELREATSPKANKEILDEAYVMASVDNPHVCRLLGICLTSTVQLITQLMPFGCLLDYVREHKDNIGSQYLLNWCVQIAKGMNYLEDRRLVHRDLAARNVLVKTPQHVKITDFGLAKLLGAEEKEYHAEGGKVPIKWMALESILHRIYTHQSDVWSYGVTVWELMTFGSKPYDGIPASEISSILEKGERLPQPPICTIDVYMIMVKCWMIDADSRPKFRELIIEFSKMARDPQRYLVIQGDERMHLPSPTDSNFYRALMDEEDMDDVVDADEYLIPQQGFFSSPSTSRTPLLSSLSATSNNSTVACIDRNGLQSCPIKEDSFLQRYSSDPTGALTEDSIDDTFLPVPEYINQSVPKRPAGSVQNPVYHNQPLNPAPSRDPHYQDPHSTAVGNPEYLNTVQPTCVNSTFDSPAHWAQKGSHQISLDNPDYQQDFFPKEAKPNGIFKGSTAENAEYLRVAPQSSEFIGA
Put plainly: Inhibition of EGFR-dependent proliferation (EGF-stimulated murine haematopoietic cell line expressing human EGF-R, Cell Titer 96 AQueous assay). Type of assay: cell-based. Particulars: 20 ng/ml human EGF, 48 hours at 37° C. On the procedure:
A murine haematopoietic cell line is genetically modified so as to express functional human EGF-R. The proliferation of this cell line can therefore be stimulated by EGF.
The test is carried out as follows:
The cells are cultivated in RPMI/1640 medium. The proliferation is stimulated with 20 ng/ml of human EGF (Promega). To investigate the inhibitory activity of the compounds according to the invention these compounds are dissolved in 100% dimethylsulphoxide (DMSO) and added to the cultures in various dilutions, the maximum DMSO concentration being 1%. The cultures are incubated for 48 hours at 37° C.
In order to determine the inhibitory activity of the compounds according to the invention the relative cell number is measured in O.D. units using the Cell Titer 96™ AQueous Non-Radioactive Cell Proliferation Assay (Promega). The relative cell number is calculated as a percentage of the control and the concentration of active substance which inhibits the proliferation of the cells by 50% (IC50) is derived therefrom.
For the molecule `COc1cc2ncnc(Nc3cccc(Cl)c3F)c2cc1O[C@H]1CC[C@@H](N2CCN(CC3CC3)C(=O)C2)CC1` [1(1), cis], the IC50 is 10.1 nM.

`COc1cc2ncnc(Nc3cccc(Cl)c3F)c2cc1O[C@H]1CC[C@H](N2CCN(CC3CC3)C(=O)C2)CC1` [1(1), trans] yielded an IC50 of 1.7 nM. This IC50 lies about 5.9-fold lower than the previous one.

Regarding `CCCCN1CCN([C@H]2CC[C@@H](Oc3cc4c(Nc5cccc(Cl)c5F)ncnc4cc3OC)CC2)CC1=O` [1(2), cis], it took 12.1 nM to reach half-maximal inhibition (IC50).

The molecule `CCCCN1CCN([C@H]2CC[C@H](Oc3cc4c(Nc5cccc(Cl)c5F)ncnc4cc3OC)CC2)CC1=O` [1(2), trans] came in with an IC50 of 3.1 nM. Compared with the last molecule, the IC50 is about 3.9-fold lower.

`COc1cc2ncnc(Nc3cccc(Cl)c3F)c2cc1O[C@H]1CC[C@@H](N2CCN(C3CCOCC3)C(=O)C2)CC1` [1(3), cis] came in with an IC50 of 9.3 nM.

For the molecule `COc1cc2ncnc(Nc3cccc(Cl)c3F)c2cc1O[C@H]1CC[C@H](N2CCN(C3CCOCC3)C(=O)C2)CC1` [1(3), trans], the IC50 worked out at 1.6 nM.

Molecule `CCN1CCN([C@H]2CC[C@@H](Oc3cc4c(Nc5cccc(Cl)c5F)ncnc4cc3OC)CC2)CC1=O` [1, cis] displayed an IC50 of 7.1 nM.

Take `CCN1CCN([C@H]2CC[C@H](Oc3cc4c(Nc5cccc(Cl)c5F)ncnc4cc3OC)CC2)CC1=O` [1, trans]: it took 1.3 nM to reach half-maximal inhibition (IC50).

For orientation: IC50 means the concentration needed to halve the response being measured. Low values mean higher potency, high ones lower potency.
